Source: PubChem BioAssay AID256 (DTP/NCI, 2004)
Where “and” joins values, the source holds several entries; their conditions need not be identical. Equal entries are not always repeated. Inconclusive results and toxic doses are left out. How the source made its calls: active means survival T/C of 150% or more; inactive means T/C below 125% in these data.

System: CD2F1 mice, L1210 leukemia ip, survival T/C
Experiment: NCI In Vivo Anticancer Drug Screen. Data for tumor model L1210 Leukemia (intraperitoneal) in CD2F1 (CDF1) mice
Conditions: endpoint: mean survival time, higher = longer survival
Method in brief: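 Each value reflects a quotient of treated over vehicle control outcomes in mice with a transplanted tumor.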

[1] = dose: 25.0 mg/kg/injection, schedule: Q01DX009 (ip), vehicle: saline with Tween-80
[2] = dose: 25.0 mg/kg/injection, schedule: Q04DX003 (ip), vehicle: saline with Tween-80
[3] = dose: 50.0 mg/kg/injection, schedule: Q01DX009 (ip), vehicle: saline with Tween-80
[4] = dose: 50.0 mg/kg/injection, schedule: Q04DX003 (ip), vehicle: saline with Tween-80
[5] = dose: 100.0 mg/kg/injection, schedule: Q01DX009 (ip), vehicle: saline with Tween-80
[6] = dose: 100.0 mg/kg/injection, schedule: Q04DX003 (ip), vehicle: saline with Tween-80
[7] = dose: 200.0 mg/kg/injection, schedule: Q04DX003 (ip), vehicle: saline with Tween-80
[8] = dose: 400.0 mg/kg/injection, schedule: Q04DX003 (ip), vehicle: saline with Tween-80
[9] = dose: 200.0 mg/kg/injection, schedule: Q01DX009 (ip), vehicle: saline with Tween-80
[10] = dose: 400.0 mg/kg/injection, schedule: Q01DX009 (ip), vehicle: saline with Tween-80
[11] = dose: 12.5 mg/kg/injection, schedule: Q01DX009 (ip), vehicle: saline with Tween-80

Measured: T/C

CC(C)(C)CC1(C)NC(=O)NC1=O (centres undefined)
inactive: dose: 100.0 mg/kg/injection, schedule: Q01DX001 (ip), vehicle: saline 100 % of control | dose: 200.0 mg/kg/injection, schedule: Q01DX001 (ip), vehicle: saline 97 % of control | dose: 400.0 mg/kg/injection, schedule: Q01DX001 (ip), vehicle: saline 100 % of control

CN(N)c1cccc2c1CCCC2
inactive: [1] 106 % of control | [2] 97 % of control | [3] 103 % of control | [4] 102 % of control | [5] 105 % of control | [6] 93 % of control and 102 % of control

CN(C)c1ccc2nc(CC(O)(C(F)(F)F)C(F)(F)F)ccc2c1
inactive: [1] 95 % of control | [3] 95 % of control | [5] 93 % of control | [6] 89 % of control

NCCN1CCCC1
inactive: dose: 100.0 mg/kg/injection, schedule: Q04DX002 (ip), vehicle: saline 96 % of control | dose: 200.0 mg/kg/injection, schedule: Q04DX002 (ip), vehicle: saline 111 % of control | dose: 400.0 mg/kg/injection, schedule: Q04DX002 (ip), vehicle: saline 103 % of control

Cc1ccc(Cl)cc1NC(=O)CCl
inactive: [1] 94 % of control | [3] 94 % of control | [5] 89 % of control and 96 % of control | [6] 101 % of control | [7] 95 % of control | [8] 97 % of control

CC1(C)N=C(N)N=C(N)N1c1ccc(CCCCc2ccc(S(=O)(=O)F)cc2)c(Cl)c1
inactive: dose: 13.0 mg/kg/injection, schedule: Q01DX009 (ip), vehicle: saline with Tween-80 116 % of control | dose: 20.0 mg/kg/injection, schedule: Q01DX009 (ip), vehicle: saline with Tween-80 120 % of control | dose: 45.0 mg/kg/injection, schedule: Q01DX009 (ip), vehicle: saline with Tween-80 93 % of control

Nc1ncnc2c1ncn2CCCl
inactive: [1] 102 % of control | [2] 103 % of control | [3] 101 % of control | [4] 96 % of control | [6] 97 % of control

CN(C)Cc1cc(C(C)(C)C)cc(CN(C)C)c1O
inactive: dose: 2.5 mg/kg/injection, schedule: Q01DX009 (ip), vehicle: saline with Tween-80 98 % of control | dose: 5.0 mg/kg/injection, schedule: Q01DX009 (ip), vehicle: saline with Tween-80 96 % of control | dose: 10.0 mg/kg/injection, schedule: Q01DX009 (ip), vehicle: saline with Tween-80 95 % of control and 100 % of control

Clc1c(Cl)c(Cl)c(CSCc2c(Cl)c(Cl)c(Cl)c(Cl)c2Cl)c(Cl)c1Cl
inactive: [5] 93 % of control | [6] 91 % of control | [9] 96 % of control | [7] 96 % of control | [10] 94 % of control | [8] 90 % of control

COC(=O)CC1(O)C=CC(=O)C=C1
inactive: dose: 0.75 mg/kg/injection, schedule: Q01DX009 (ip), vehicle: Klucel (hydroxypropylcellulose) (HPC) 104 % of control | dose: 1.5 mg/kg/injection, schedule: Q01DX009 (ip), vehicle: Klucel (hydroxypropylcellulose) (HPC) 98 % of control | dose: 3.0 mg/kg/injection, schedule: Q01DX009 (ip), vehicle: Klucel (hydroxypropylcellulose) (HPC) 95 % of control | dose: 6.0 mg/kg/injection, schedule: Q01DX009 (ip), vehicle: Klucel (hydroxypropylcellulose) (HPC) 92 % of control | dose: 12.0 mg/kg/injection, schedule: Q01DX009 (ip), vehicle: Klucel (hydroxypropylcellulose) (HPC) 95 % of control

CC(C)CC#N
inactive: [5] 100 % of control | [6] 101 % of control | [7] 104 % of control | [8] 104 % of control

CCO/C=C1\SC(=S)N(c2ccccc2C)C1=O
inactive: [5] 106 % of control and 111 % of control | [6] 103 % of control | [9] 103 % of control and 106 % of control | [7] 108 % of control | [10] 88 % of control | [8] 113 % of control

COc1cccc(CC(C)N)c1OC (centres undefined)
inactive: dose: 25.0 mg/kg/injection, schedule: Q01DX009 (ip), vehicle: saline 98 % of control | dose: 50.0 mg/kg/injection, schedule: Q01DX009 (ip), vehicle: saline 95 % of control | dose: 100.0 mg/kg/injection, schedule: Q01DX009 (ip), vehicle: saline 93 % of control | [6] 95 % of control

C=CC1CC=CCC1 (centres undefined)
inactive: [5] 103 % of control | [9] 106 % of control

Nc1nc(=O)n(CCCOc2cccc(NC(=O)c3ccccc3)c2)cc1-c1ccc(Cl)c(Cl)c1
inactive: dose: 100.0 mg/kg/injection, schedule: Q01DX001 (ip), vehicle: saline with Tween-80 91 % of control | dose: 200.0 mg/kg/injection, schedule: Q01DX001 (ip), vehicle: saline with Tween-80 94 % of control | dose: 400.0 mg/kg/injection, schedule: Q01DX001 (ip), vehicle: saline with Tween-80 97 % of control

N#CCCN1CCS(=O)(=O)C1=O
inactive: dose: 19.0 mg/kg/injection, schedule: Q01DX001 (ip), vehicle: other 107 % of control | dose: 38.0 mg/kg/injection, schedule: Q01DX001 (ip), vehicle: other 115 % of control | dose: 75.0 mg/kg/injection, schedule: Q01DX001 (ip), vehicle: other 112 % of control | dose: 150.0 mg/kg/injection, schedule: Q01DX001 (ip), vehicle: other 117 % of control and 109 % of control

O=c1[nH]nc(-c2cccc3ccccc23)c2ccccc12
inactive: [6] 97 % of control | [7] 94 % of control | [8] 97 % of control

O=C1OC(O)C(Cl)=C1Cl (centres undefined)
inactive: dose: 100.0 mg/kg/injection, schedule: Q04DX002 (ip), vehicle: Klucel (hydroxypropylcellulose) (HPC) 103 % of control | dose: 200.0 mg/kg/injection, schedule: Q04DX002 (ip), vehicle: Klucel (hydroxypropylcellulose) (HPC) 91 % of control | dose: 400.0 mg/kg/injection, schedule: Q04DX002 (ip), vehicle: Klucel (hydroxypropylcellulose) (HPC) 97 % of control

Cc1c2ccc3ccccc3c2c[n+]2ccccc12
inactive: dose: 1.25 mg/kg/injection, schedule: Q01DX009 (ip), vehicle: Klucel (hydroxypropylcellulose) (HPC) 87 % of control and 102 % of control | dose: 2.5 mg/kg/injection, schedule: Q01DX009 (ip), vehicle: Klucel (hydroxypropylcellulose) (HPC) 98 % of control and 102 % of control | dose: 5.0 mg/kg/injection, schedule: Q01DX009 (ip), vehicle: Klucel (hydroxypropylcellulose) (HPC) 100 % of control and 105 % of control | dose: 10.0 mg/kg/injection, schedule: Q01DX009 (ip), vehicle: Klucel (hydroxypropylcellulose) (HPC) 104 % of control and 110 % of control | dose: 20.0 mg/kg/injection, schedule: Q01DX009 (ip), vehicle: Klucel (hydroxypropylcellulose) (HPC) 105 % of control

O=C1CCC2(CCCCC2)N1
inactive: dose: 1.25 mg/kg/injection, schedule: Q01DX009 (ip), vehicle: saline 107 % of control | dose: 2.5 mg/kg/injection, schedule: Q01DX009 (ip), vehicle: saline 107 % of control | dose: 3.13 mg/kg/injection, schedule: Q01DX009 (ip), vehicle: saline 96 % of control | dose: 5.0 mg/kg/injection, schedule: Q01DX009 (ip), vehicle: saline 103 % of control | dose: 6.25 mg/kg/injection, schedule: Q01DX009 (ip), vehicle: saline 101 % of control | dose: 12.5 mg/kg/injection, schedule: Q01DX009 (ip), vehicle: saline 98 % of control and 101 % of control

ClC1CCC[N-]C1.ClC1CCC[N-]C1.[Cl][Pt+2]([Cl])([Cl])[Cl] (centres undefined)
inactive: dose: 0.78 mg/kg/injection, schedule: Q01DX009 (ip), vehicle: saline with Tween-80 102 % of control | dose: 1.56 mg/kg/injection, schedule: Q01DX009 (ip), vehicle: saline with Tween-80 109 % of control | dose: 3.13 mg/kg/injection, schedule: Q01DX009 (ip), vehicle: saline with Tween-80 105 % of control | dose: 6.25 mg/kg/injection, schedule: Q01DX009 (ip), vehicle: saline with Tween-80 112 % of control | [11] 104 % of control

N#CSCc1ccccc1
inactive: [11] 100 % of control

C=C1CC23CC[C@H]4[C@@](C)(CCC[C@@]4(C)C(=O)O)[C@@H]2CC[C@]1(OC1OC(COC(C)=O)C(OC(C)=O)C(OC(C)=O)C1OC1OC(COC(C)=O)C(OC(C)=O)C(OC(C)=O)C1OC(C)=O)C3 (some centres undefined)
inactive: dose: 100.0 mg/kg/injection, schedule: Q04DX002 (ip), vehicle: saline with Tween-80 93 % of control | dose: 200.0 mg/kg/injection, schedule: Q04DX002 (ip), vehicle: saline with Tween-80 89 % of control | dose: 400.0 mg/kg/injection, schedule: Q04DX002 (ip), vehicle: saline with Tween-80 96 % of control

CS(=O)(=O)OC1CS(=O)(=O)Cc2ccccc21 (centres undefined)
inactive: dose: 100.0 mg/kg/injection, schedule: Q01DX001 (ip), vehicle: carboxymethylcellulose (CMC) 101 % of control | dose: 200.0 mg/kg/injection, schedule: Q01DX001 (ip), vehicle: carboxymethylcellulose (CMC) 101 % of control | dose: 400.0 mg/kg/injection, schedule: Q01DX001 (ip), vehicle: carboxymethylcellulose (CMC) 101 % of control

C[N+](C)(C)CCOC(=O)c1cc(CBr)cc(CBr)c1
inactive: dose: 100.0 mg/kg/injection, schedule: Q04DX003 (ip), vehicle: saline 103 % of control

NOCc1cc(Cl)sc1Cl
inactive: [6] 112 % of control | [7] 121 % of control
